Test results published in paper PMC3689634, “Self-assembled peptide amphiphiles function as multivalent binder with increased hemagglutinin affinity” (BMC Biotechnology, 2013).
Entries after “also recorded” stand apart in the source; their conditions may differ.

Legend:
[1] = tested on: HA receptor (hemagglutinin); settings: monovalent binding; cited from earlier work
[2] = tested on: hemagglutinin H5 (HA1 aa 17–338, A/chicken/Jilin/9/2004 (H5N1)); type: binding, influenza A virus (H5N1); settings: pH 7.4

Compound | association constant, single SA molecule to a single HA receptor [1] | SPR binding signal to immobilised H5 (in words) [2]
CC(=O)N[C@H]1[C@H]([C@H](O)[C@H](O)CO)OC(O)(C(=O)O)C[C@@H]1O (some centres unmarked) [SA, sialic acid] | 10^3 M^-1 | –
C16-GSWGEW [negative control] | – | no binding affinity; also recorded: no quantitative measurable signal changes
